According to PubChem BioAssay (NCI):
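Briefly, cells in 96-well plates were exposed to five compound concentrations for 48 h, and endpoints were estimated by linear interpolation. GI50 marks 50% less growth. TGI: total growth inhibition.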

Experiments:
Assay in all cases: NCI-60 cell line screen, 48 h
SK-MEL-28 melanoma = test system: SK-MEL-28 melanoma
NCI-H226 lung = test system: NCI-H226 lung
RXF 393 renal = test system: RXF 393 renal
OVCAR-5 ovarian = test system: OVCAR-5 ovarian
HOP-92 NSCLC = test system: HOP-92 NSCLC
MALME-3M melanoma = test system: MALME-3M melanoma
MOLT-4 leukemia = test system: MOLT-4 leukemia
OVCAR-3 ovarian = test system: OVCAR-3 ovarian
A498 renal = test system: A498 renal
UACC-257 melanoma = test system: UACC-257 melanoma
HT29 colon = test system: HT29 colon
ACHN renal = test system: ACHN renal
HCT-15 colon = test system: HCT-15 colon
NCI-H460 lung = test system: NCI-H460 lung
MDA-MB-435 = test system: MDA-MB-435
KM12 colon = test system: KM12 colon
EKVX NSCLC = test system: EKVX NSCLC
COLO 205 colon = test system: COLO 205 colon
HS 578T breast = test system: HS 578T breast
A549 NSCLC = test system: A549 NSCLC
T-47D breast = test system: T-47D breast
PC-3 prostate = test system: PC-3 prostate
DU-145 prostate = test system: DU-145 prostate
LOX IMVI melanoma = test system: LOX IMVI melanoma
SW-620 colon = test system: SW-620 colon
TK-10 renal = test system: TK-10 renal
MCF7 breast = test system: MCF7 breast
OVCAR-4 ovarian = test system: OVCAR-4 ovarian
786-0 renal = test system: 786-0 renal
BT-549 breast = test system: BT-549 breast
RPMI-8226 leukemia = test system: RPMI-8226 leukemia
HCT-116 colon = test system: HCT-116 colon
K-562 leukemia = test system: K-562 leukemia
IGROV1 ovarian = test system: IGROV1 ovarian
HL-60(TB) leukemia = test system: HL-60(TB) leukemia
SK-OV-3 ovarian = test system: SK-OV-3 ovarian
NCI-H522 lung = test system: NCI-H522 lung
NCI/ADR-RES ovarian = test system: NCI/ADR-RES ovarian
MDA-MB-231 breast = test system: MDA-MB-231 breast
NCI-H23 lung = test system: NCI-H23 lung
SR leukemia = test system: SR leukemia
M14 melanoma = test system: M14 melanoma
HOP-62 NSCLC = test system: HOP-62 NSCLC
SK-MEL-5 melanoma = test system: SK-MEL-5 melanoma
SK-MEL-2 melanoma = test system: SK-MEL-2 melanoma
CAKI-1 renal = test system: CAKI-1 renal
CCRF-CEM leukemia = test system: CCRF-CEM leukemia
SN12C renal = test system: SN12C renal
UO-31 renal = test system: UO-31 renal
HCC-2998 colon = test system: HCC-2998 colon

Compound `CO[C@@]12[C@@H]3NC3CN1C1=C(C(=O)C(N)=C(C)C1=O)[C@@H]2COC(N)=O` (some centres not stated) has a GI50 (SK-MEL-28 melanoma) of 1390 nM, a TGI (SK-MEL-28 melanoma) of 5470 nM and a GI50 (NCI-H226 lung) of 504 nM. It also gave a TGI (NCI-H226 lung) of 2780 nM, a GI50 (RXF 393 renal) of 1270 nM and a TGI (RXF 393 renal) of 4160 nM. It also gave a GI50 (OVCAR-5 ovarian) of 1020 nM, a TGI (OVCAR-5 ovarian) of 6990 nM and a GI50 (HOP-92 NSCLC) of 1440 nM. For the same compound, the TGI (HOP-92 NSCLC) was 5730 nM, the GI50 (MALME-3M melanoma) was 511 nM and the TGI (MALME-3M melanoma) was 2210 nM. The GI50 (MOLT-4 leukemia) was 278 nM, the GI50 (OVCAR-3 ovarian) was 1070 nM and the TGI (OVCAR-3 ovarian) was 3070 nM. The TGI (A498 renal) was 1210 nM, the TGI (UACC-257 melanoma) was 2140 nM and the TGI (HT29 colon) was 5240 nM. The TGI (ACHN renal) was 1630 nM, the GI50 (HCT-15 colon) was 807 nM and the TGI (HCT-15 colon) was > 100000 nM. For the same compound, the TGI (NCI-H460 lung) was 1440 nM, the GI50 (MDA-MB-435) was 1130 nM and the TGI (MDA-MB-435) was 8300 nM. It also gave a GI50 (KM12 colon) of 1220 nM, a TGI (KM12 colon) of 7220 nM and a GI50 (EKVX NSCLC) of 3090 nM. For the same compound, the TGI (EKVX NSCLC) was 20200 nM, the GI50 (COLO 205 colon) was 550 nM and the TGI (COLO 205 colon) was 2300 nM. For the same compound, the GI50 (HS 578T breast) was 6320 nM, the TGI (HS 578T breast) was > 100000 nM and the TGI (A549 NSCLC) was 3620 nM. For the same compound, the GI50 (T-47D breast) was 1670 nM, the TGI (T-47D breast) was 54500 nM and the GI50 (PC-3 prostate) was 2020 nM. For the same compound, the TGI (PC-3 prostate) was 37100 nM, the TGI (DU-145 prostate) was 11900 nM and the TGI (LOX IMVI melanoma) was 2060 nM. For the same compound, the TGI (SW-620 colon) was 7010 nM, the GI50 (TK-10 renal) was 1680 nM and the TGI (TK-10 renal) was 5850 nM. For the same compound, the GI50 (MCF7 breast) was 80.9 nM, the TGI (MCF7 breast) was 7550 nM and the GI50 (OVCAR-4 ovarian) was 2220 nM. The TGI (OVCAR-4 ovarian) was 33900 nM, the TGI (786-0 renal) was 2770 nM and the GI50 (BT-549 breast) was 1300 nM. The TGI (BT-549 breast) was 6740 nM, the GI50 (RPMI-8226 leukemia) was 1840 nM and the TGI (RPMI-8226 leukemia) was 27800 nM. For the same compound, the GI50 (HCT-116 colon) was 530 nM, the TGI (HCT-116 colon) was 3260 nM and the GI50 (K-562 leukemia) was 965 nM. The TGI (K-562 leukemia) was > 100000 nM, the GI50 (IGROV1 ovarian) was 1300 nM and the TGI (IGROV1 ovarian) was 4000 nM. It also gave a GI50 (HL-60(TB) leukemia) of 86.2 nM, a TGI (HL-60(TB) leukemia) of 7430 nM and a TGI (SK-OV-3 ovarian) of 5330 nM. The GI50 (NCI-H522 lung) was 325 nM, the TGI (NCI-H522 lung) was 2130 nM and the GI50 (NCI/ADR-RES ovarian) was 3450 nM. For the same compound, the TGI (NCI/ADR-RES ovarian) was > 90500 nM, the GI50 (MDA-MB-231 breast) was 8950 nM and the TGI (MDA-MB-231 breast) was > 54800 nM. For the same compound, the TGI (NCI-H23 lung) was 1460 nM, the GI50 (SR leukemia) was 32.5 nM and the TGI (SR leukemia) was > 100000 nM. It also gave a TGI (M14 melanoma) of 1820 nM, a TGI (HOP-62 NSCLC) of 8210 nM and a TGI (SK-MEL-5 melanoma) of 631 nM. For the same compound, the GI50 (SK-MEL-2 melanoma) was 1910 nM, the TGI (SK-MEL-2 melanoma) was 4410 nM and the TGI (CAKI-1 renal) was 2080 nM. The GI50 (CCRF-CEM leukemia) was 296 nM, the TGI (CCRF-CEM leukemia) was > 63500 nM and the TGI (SN12C renal) was > 40900 nM. It also gave a GI50 (UO-31 renal) of 465 nM, a TGI (UO-31 renal) of 3040 nM and a GI50 (HCC-2998 colon) of 460 nM. For the same compound, the TGI (HCC-2998 colon) was 2020 nM.
